This note sets out measurements from ChEMBL document CHEMBL3526000 (Drug Metab Dispos, 2012).

Assay type in all cases: ADME
The target in data set [1] is T1, UDP-glucuronosyltransferase 1A4 (Homo sapiens, UniProt P22310).
T1 sequence (P22310 whole entry): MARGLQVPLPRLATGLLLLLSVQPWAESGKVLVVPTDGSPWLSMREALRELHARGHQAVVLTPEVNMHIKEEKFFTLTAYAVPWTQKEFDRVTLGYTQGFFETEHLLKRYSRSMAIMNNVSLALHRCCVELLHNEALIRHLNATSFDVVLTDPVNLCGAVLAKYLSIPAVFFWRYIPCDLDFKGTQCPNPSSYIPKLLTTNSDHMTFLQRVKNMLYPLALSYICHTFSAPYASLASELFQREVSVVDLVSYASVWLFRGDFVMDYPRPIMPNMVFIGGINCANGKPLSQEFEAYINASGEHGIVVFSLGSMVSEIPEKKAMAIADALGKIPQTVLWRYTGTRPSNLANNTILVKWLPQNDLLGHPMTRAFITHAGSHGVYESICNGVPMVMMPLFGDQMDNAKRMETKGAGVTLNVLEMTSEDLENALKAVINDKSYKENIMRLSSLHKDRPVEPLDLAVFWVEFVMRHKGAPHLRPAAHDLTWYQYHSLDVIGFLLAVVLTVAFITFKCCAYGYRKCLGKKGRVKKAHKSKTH
Put plainly: Drug metabolism assessed as UGT1A4 activity in human liver microsome assessed as of N-glucuronidation at 25 to 200 uM incubated for 60 mins by LC-MS/MS analysis. As to conditions: microsomes, 1 h.

The subject of data set [2] is Liver microsome. The data set is described as follows: Drug metabolism assessed as Sprague-Dawley rat liver microsomes assessed as compound formation treated with at 100 uM haloperidol by LC-MS/MS analysis.
Data set [3] addresses T2, UDP-glucuronosyltransferase 2B7 (Homo sapiens, UniProt P16662).
T2 sequence (P16662 whole entry): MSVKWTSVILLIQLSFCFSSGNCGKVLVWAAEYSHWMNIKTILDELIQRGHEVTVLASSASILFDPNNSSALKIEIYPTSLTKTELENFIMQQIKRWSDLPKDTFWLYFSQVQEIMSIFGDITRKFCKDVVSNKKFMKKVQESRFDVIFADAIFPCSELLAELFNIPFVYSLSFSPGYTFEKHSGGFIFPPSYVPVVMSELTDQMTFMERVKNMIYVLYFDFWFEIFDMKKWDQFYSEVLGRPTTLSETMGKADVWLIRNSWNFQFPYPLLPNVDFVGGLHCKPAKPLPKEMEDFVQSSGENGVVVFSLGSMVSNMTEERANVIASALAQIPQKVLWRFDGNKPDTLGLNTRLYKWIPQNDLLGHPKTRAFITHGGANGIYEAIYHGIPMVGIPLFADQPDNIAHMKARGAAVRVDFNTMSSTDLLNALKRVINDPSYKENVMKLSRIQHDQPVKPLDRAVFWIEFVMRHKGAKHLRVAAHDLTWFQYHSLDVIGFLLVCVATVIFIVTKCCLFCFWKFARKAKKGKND
The data set is described as follows: Drug metabolism assessed as UGT2B7 activity in human liver microsome assessed as of O-glucuronidation at 25 to 200 uM incubated for 60 mins by LC-MS/MS analysis. As to conditions: microsomes, 1 h. (Microsomes from liver hold many membrane-bound enzymes, among them those of drug oxidation.)

The structures appear in SMILES notation.

In the case of `CN1CCN(CCCN2c3ccccc3Sc3ccc(C(F)(F)F)cc32)CC1.Cl`, the Drug metabolism in data set [1] turned out to be 0.26 nmol/min/mg.
`O=C(CCCN1CCC(O[C@@H]2O[C@H](C(=O)O)[C@@H](O)[C@H](O)[C@H]2O)(c2ccc(Cl)cc2)CC1)c1ccc(F)cc1`: the Drug metabolism entry in data set [2] is “metabolite_detected”.
On to `Cc1cn([C@H]2C[C@H](N=[N+]=[N-])[C@@H](CO)O2)c(=O)[nH]c1=O` [ZIDOVUDINE], for which the Drug metabolism in data set [3] is given as 0.14 nmol/min/mg.
